Test results published in patent US20180200233A1, “COMPOSITIONS FOR PREVENTING CANCERS ASSOCIATED WITH HUMAN PAPILLOMA VIRUSES” (Loma Linda University, priority 2015, published 2018).

Molecular target: T1, GST-E6/His-caspase 8 (Human papillomavirus type 16, UniProt P03126)
T1 construct: made in house
Assay: AlphaScreen bead-based assay, GST-E6/His-caspase 8 binding
Design: species or system HPV 16
Experimental: FIGS. 2A-C are graphs providing data regarding inhibition of protein-protein interactions by 3-(1H-indol-1yl)propan-1-amine (1), three benzimidazole derivatives (2-4), and spinacine (5). Compounds, at the indicated concentrations (1.4 μM to 3.2 mM) were tested using a bead-based screening assay for their ability to inhibit three different protein/protein interactions: (FIG. 2A) GST-E6/His-caspase 8; (FIG. 2B) GST-E6/HisE6AP; and (FIG. 2C) GST-caspase 8/His-caspase 8. Binding in the presence of 1.4 μM of the test compound was set at 100%. Experiments were performed in triplicate, and error bars indicate the standard deviation.
HPV E6 binds to caspase 8 (Garnett, T. O., M. Filippova, and P. J. Duerksen-Hughes, Accelerated degradation of FADD and procaspase 8 in cells expressing human papilloma virus 16 E6 impairs TRAIL-mediated apoptosis. Cell death and differentiation, 2006. 13(11): p. 1915-26), and myricetin can block the E6/caspase 8 interaction in vitro (Yuan, C. H., et al., Small molecule inhibitors of the HPV16-E6 interaction with caspase 8. Bioorganic & medicinal chemistry letters, 2012. 22(5): p. 2125-9). A bead-based assay based on AlphaScreen™ technology (Perkin-Elmer) is used to identify inhibitors of the E6/caspase 8 interaction (Yuan, C. H., et al., Small molecule inhibitors of the HPV16-E6 interaction with caspase 8. Bioorganic & medicinal chemistry letters, 2012. 22(5): p. 2125-9). The ActiProbe 2K (2,000 compounds) library was screened using the same approach. […] Analysis of the structures and physical/chemical characteristics of those molecules led to the selection of five additional compounds: 3-(1H-indol-1-yl)propan-1-amine methanesulfonate (1), benzimidazole (2), 1H-benzimidazole-1-methanol (3), 2-(methoxymethyl)-1H-benzimidazole (4), and spinacine (5) for further study (FIG. 1).
To determine the dose-responsiveness of these five compounds, variable concentrations of those small molecules were first tested for their ability to inhibit E6/caspase binding. […] These molecules, which had been selected for their ability to interfere with E6/caspase 8 binding, were then tested to determine if they could also affect other interactions of E6, such as its binding to E6-associated protein (E6AP). The E6/E6AP interaction is required for the E6-mediated acceleration of p53 degradation (Huibregtse, J. M., M. Scheffner, and P. M. Howley, A cellular protein mediates association of p53 with the E6 oncoprotein of human papillomavirus types 16 or 18. The EMBO journal, 1991. 10(13): p. 4129-35).
Alpha-Screen™ technology was used to assess the interactions between GST-E6, GST-caspase 8, His-E6AP, and His-caspase 8. Binding assays were performed in white 384-well plates (Perkin-Elmer) in a total volume of 25 μl as previously described (Tungteakkhun, S. S., et al., The interaction between human papillomavirus type 16 and FADD is mediated by a novel E6 binding domain. Journal of virology, 2008. 82(19): p. 9600-14). Briefly, 5 μl (50 ng) of GST-E6 and 5 μl (87.5 ng) of His-caspase 8 were included in each reaction mixture with 5 μl blocking buffer (0.5 mg BSA, 0.5% Tween 20 in PBS) in the absence or presence of 10 μM of each test chemical. […] The mixture was incubated in the dark at room temperature overnight, and the emitted signal was detected using the Envision Multilabel plate reader (Perkin-Elmer). In the presence of test chemicals, the binding affinity was calculated as a percentage of the binding in the presence of carrier only (DMSO).

T1 sequence (P03126 whole entry): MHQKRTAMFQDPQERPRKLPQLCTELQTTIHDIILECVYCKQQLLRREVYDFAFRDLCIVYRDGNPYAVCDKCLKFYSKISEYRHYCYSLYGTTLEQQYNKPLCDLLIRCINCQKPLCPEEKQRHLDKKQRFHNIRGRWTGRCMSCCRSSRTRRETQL

Row | Compound | EC50 for GST-E6/His-caspase 8 interaction (bead-based assay, compounds tested 1.4 μM to 3.2 mM) | inhibition of E6/caspase 8 binding (in words) (FIG. 2A, primary screen at 10 μM)
1 | OCn1cnc2ccccc21 [Compound 3, 1H-benzimidazole-1-methanol] | No Inhibition | –
2 | O=C(O)C1Cc2[nH]cnc2CN1 (centres unmarked) [Compound 5, 4,5,6,7-Tetrahydro-1H-imidazo(4,5-c)pyridine-6-carboxylic acid] | – | dose-dependent inhibition
